The source of these data is patent publication US5710245A, “Alpha-helix mimetics and methods relating thereto” (Molecumetics, Ltd., priority 1995, dated 1998).

A short description of this series: Circular dichroism (alpha-helicity) of peptide in water. The format is physicochemical. The conditions noted are these: ratio of mean residue ellipticity at 222 nm to 208 nm, 75 μM in water. From the text: Alpha-helicity of a peptide is typically determined by measuring its circular dichroism (CD), and CD data is normally presented as mean residue ellipticies [.THETA.]m. Alpha-helical peptides show two negative Cotton effects at 208 nm and 222 nm, and a positive Cotton effect at 193 nm, while the CD spectra of peptides with random coil secondary structure are dominated by the increasing negative Cotton effect at shorter wavelength. Alpha-helicity may be estimated from the value at 222 nm, and by comparing the negative Cotton effects at 222nm and 208nm. Increasing fraction of [.THETA.]m (222 nm) divided by [.THETA.]m(208 nm) correlates with increasing alpha-helicity. High values for [.THETA.]m(208 nm) compared to [.THETA.]m (222 nm) and a shifting minimum from 208 nm to shorter wavelengths indicate random coil conformation.
An NPY analog having the structure Ac-RAAANLITRQRY--NH2 was synthesized according to standard solid phase peptide synthetic techniques. The NPY analog was then dissolved in water at a concentration of 75 μM, and its CD measured using a JASCO J500 CD spectrometer at a temperature of both 3° C. and 25° C. Structure VI was synthesized according to Example 3, and its CD was similarly measured at both 3° C. and 25° C. (at a concentration of 75 μM).
For orientation: CD spectra are sensitive to the conformation of chiral molecules.

As for “Ac-RAAANLITRQRY-NH2 [NPY Analog, Ac-RAAANLITRQRY--NH2]”, the “Circular Dichroism 222/208 3° C.” value (3° C.) is given as 0.38. Moreover, where the note is “25° C.”, the “Circular Dichroism 222/208 25° C.” value is listed as 0.41.
